Patent US20070049593A1 (priority 2004, published 2007)

Molecular target: T1, HCV polymerase (Hepatitis C virus genotype 1b, UniProt P26663)
T1 construct: a region encoding NS5B (J Virol 1991 March, 65(3), 1105-13, 544 amino acids after deletion of 47 amino acids on the C-terminal); 6xHis (C); made in house; host or cells: Escherichia coli
Experiment: biochemical
Parameters: species or system HCV BK strain
Procedure, shortened: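 Recombinant HCV BK-strain NS5B (C-terminal 47 aa deleted, His6-tagged, E. coli), 0.5 μg/ml, run with 5 μg/ml in vitro-transcribed RNA template (polyU/3′X), ATP/GTP/CTP 50 μM, UTP 2 μM plus [3H]UTP, pH 7.5, 25° C, 90 min. TCA-precipitated RNA counted by scintillation; IC50 from activity with vs without compound.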

T1 sequence (P26663 2420-2963): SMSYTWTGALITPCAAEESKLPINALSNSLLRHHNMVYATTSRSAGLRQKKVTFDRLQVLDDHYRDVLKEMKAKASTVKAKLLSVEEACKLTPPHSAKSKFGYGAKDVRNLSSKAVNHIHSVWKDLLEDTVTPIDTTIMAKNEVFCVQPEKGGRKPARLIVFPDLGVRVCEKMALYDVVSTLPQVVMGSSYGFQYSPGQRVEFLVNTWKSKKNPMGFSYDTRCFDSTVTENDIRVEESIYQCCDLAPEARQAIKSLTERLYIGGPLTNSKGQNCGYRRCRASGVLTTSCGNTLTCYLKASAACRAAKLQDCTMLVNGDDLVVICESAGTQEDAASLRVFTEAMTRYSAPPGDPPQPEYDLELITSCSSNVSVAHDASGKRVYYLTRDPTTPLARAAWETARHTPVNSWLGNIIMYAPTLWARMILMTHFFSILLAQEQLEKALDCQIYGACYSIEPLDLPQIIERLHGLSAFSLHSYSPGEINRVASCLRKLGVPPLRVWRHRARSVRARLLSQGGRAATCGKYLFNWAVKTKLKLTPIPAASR

Which IC50 does the source give for `CCOC(=O)c1ccc(-c2cnc(C(C)(C)NC(=O)c3ccc4c(C5CCCCC5)c5n(c4c3)CCOc3cc(OC)ccc3-5)[nH]2)cc1` [Example 2-398, ethyl 4-(2-{1-[(12-cyclohexyl-3-methoxy-6,7-dihydro-5-oxa-7a-azadibenzo[a,e]azulene-9-carbonyl)amino]-1-methylethyl}-3H-imidazol-4-yl)benzoate] here?
The IC50 was < 0.1 µM.

For `COc1ccc2c(c1)OCCn1c-2c(C2CCCCC2)c2ccc(C(=O)NC(C)(C)c3ncc(-c4ccc(C(=O)O)cc4)[nH]3)cc21` [Example 2-399, 4-(2-{1-[(12-cyclohexyl-3-methoxy-6,7-dihydro-5-oxa-7a-azadibenzo[a,e]azulene-9-carbonyl)amino]-1-methylethyl}-3H-imidazol-4-yl)benzoic acid], which IC50 is on record?
The IC50 was < 0.1 µM.

For `COc1ccc2c(c1)OCCn1c-2c(C2CCCCC2)c2ccc(C(=O)NC3(C(=O)O)CCOCC3)cc21` [Example 2-400, 4-[(12-cyclohexyl-3-methoxy-6,7-dihydro-5-oxa-7a-azadibenzo[a,e]azulene-9-carbonyl)amino]tetrahydropyran-4-carboxylic acid], which IC50 is on record?
Its IC50 is < 0.1 µM.

How did the IC50 turn out when `COc1ccc2c(c1)OCCn1c-2c(C2CCCCC2)c2ccc(C(=O)NC3(C(=O)Nc4ccc(/C=C/C(=O)O)cc4)CCOCC3)cc21` [Example 2-401, (E)-3-[4-({4-[(12-cyclohexyl-3-methoxy-6,7-dihydro-5-oxa-7a-azadibenzo[a,e]azulene-9-carbonyl)amino]tetrahydropyran-4-carbonyl}amino)phenyl]acrylic acid] was run?
The IC50 was < 0.1 µM.

With `COc1ccc2c(c1)OCCn1c-2c(C2CCCCC2)c2ccc(C(=O)NC3(C(=O)Nc4ccc(C(=O)O)cc4)CCOCC3)cc21` [Example 2-402, 4-({4-[(12-cyclohexyl-3-methoxy-6,7-dihydro-5-oxa-7a-azadibenzo[a,e]azulene-9-carbonyl)amino]tetrahydropyran-4-carbonyl}amino)benzoic acid] as the molecule, how does the IC50 read?
The IC50 was < 0.1 µM.

For `COc1ccc2c(c1)OCCn1c-2c(C2CCCCC2)c2ccc(C(=O)NC(C)(C)c3nc4cc(C(=O)O)ccc4c(=O)[nH]3)cc21` [Example 2-403, 2-{1-[(12-cyclohexyl-3-methoxy-6,7-dihydro-5-oxa-7a-azadibenzo[a,e]azulene-9-carbonyl)amino]-1-methylethyl}-4-oxo-3,4-dihydroquinazoline-7-carboxylic acid], which IC50 is on record?
Its IC50 is < 0.1 µM.

`COc1ccc2c(c1)OCCn1c-2c(C2CCCCC2)c2ccc(C(=O)NC(C)(C)c3nc(N(C)C)c4ccc(C(=O)O)cc4n3)cc21` [Example 2-404, 2-{1-[(12-cyclohexyl-3-methoxy-6,7-dihydro-5-oxa-7a-azadibenzo[a,e]azulene-9-carbonyl)amino]-1-methylethyl]-4-dimethylaminoquinazoline-7-carboxylic acid] was tested. Which IC50 did it give?
The IC50 was < 0.1 µM.

How did the IC50 turn out when `COc1ccc2c(c1)OCCn1c-2c(C2CCCCC2)c2ccc(C(=O)NC(C)(C)c3nc4cc(CO)ccc4[nH]3)cc21` [Example 2-405, N-[1-(5-hydroxymethyl-1H-benzimidazol-2-yl)-1-methylethyl]-12-cyclohexyl-3-methoxy-6,7-dihydro-5-oxa-7a-azadibenzo[a,e]azulene-9-carboxamide] was run?
The IC50 was < 0.1 µM.

`COc1ccc2c(c1)OCCn1c-2c(C2CCCCC2)c2ccc(C(=O)NC3(C(=O)Nc4ccc(C(C)(C)C(=O)O)cc4)CCC3)cc21` [Example 2-406, 2-[4-({1-[(12-cyclohexyl-3-methoxy-6,7-dihydro-5-oxa-7a-azadibenzo[a,e]azulene-9-carbonyl)amino]cyclobutanecarbonyl}amino)phenyl]-2-methylpropionic acid] was tested. Which IC50 did it give?
The IC50 was < 0.1 µM.

For `COC(=O)Nc1ccc(C[C@H](NC(=O)c2ccc3c(C4CCCCC4)c4n(c3c2)CCOc2cc(OC)ccc2-4)c2nc(C)no2)cc1` [Example 2-407, methyl {4-[(S)-2-[(12-cyclohexyl-3-methoxy-6,7-dihydro-5-oxa-7a-azadibenzo[a,e]azulene-9-carbonyl)amino]-2-(3-methyl-1,2,4-oxadiazol-5-yl)ethyl]phenyl}carbamate], which IC50 is on record?
Its IC50 is < 0.1 µM.

How did the IC50 turn out when `COc1ccc2c(c1)OCCn1c-2c(C2CCCCC2)c2ccc(C(=O)NC(C)(C)c3nc4ccccc4[nH]3)cc21` [Example 2-408, N-[1-(1H-benzimidazol-2-yl)-1-methylethyl]-12-cyclohexyl-3-methoxy-6,7-dihydro-5-oxa-7a-azadibenzo[a,e]azulene-9-carboxamide] was run?
The IC50 was < 0.1 µM.

For `COc1ccc2c(c1)OCCn1c-2c(C2CCCCC2)c2ccc(C(=O)NC3(c4nc5ccc(C(=O)O)cc5[nH]4)CCOCC3)cc21` [Example 2-409, 2-{4-[(12-cyclohexyl-3-methoxy-6,7-dihydro-5-oxa-7a-azadibenzo[a,e]azulene-9-carbonyl)amino]tetrahydropyran-4-yl]-3H-benzimidazole-5-carboxylic acid], which IC50 is on record?
Its IC50 is < 0.1 µM.

With `COc1ccc2c(c1)OCCn1c-2c(C2CCCCC2)c2ccc(C(=O)N[C@@H](Cc3ccc(NC(=O)OCc4ccccc4)cc3)c3csc(C)n3)cc21` [Example 2-410, benzyl (4-[(S)-2-[(12-cyclohexyl-3-methoxy-6,7-dihydro-5-oxa-7a-azadibenzo[a,e]azulene-9-carbonyl)amino]-2-(2-methylthiazol-4-yl)ethyl]phenyl}carbamate] as the molecule, how does the IC50 read?
Its IC50 is < 0.1 µM.

`COc1ccc2c(c1)OCCn1c-2c(C2CCCCC2)c2ccc(C(=O)NC(C)(C)c3nc4cc(/C=C/C(=O)O)ccc4[nH]3)cc21` [Example 2-411, (E)-3-(2-{1-[(12-cyclohexyl-3-methoxy-6,7-dihydro-5-oxa-7a-azadibenzo[a,e]azulene-9-carbonyl)amino]-1-methylethyl}-1H-benzimidazol-5-yl)acrylic acid] was tested. Which IC50 did it give?
Its IC50 is < 0.1 µM.

`COc1ccc2c(c1)OCCn1c-2c(C2CCCCC2)c2ccc(C(=O)NC(C)(C)c3nc4cc(CCC(=O)O)ccc4[nH]3)cc21` [Example 2-412, 3-(2-{1-[(12-cyclohexyl-3-methoxy-6,7-dihydro-5-oxa-7a-azadibenzo[a,e]azulene-9-carbonyl)amino]-1-methylethyl}-1H-benzimidazol-5-yl)propionic acid] was tested. Which IC50 did it give?
Its IC50 is < 0.1 µM.

How did the IC50 turn out when `COc1ccc2c(c1)OCCn1c-2c(C2CCCCC2)c2ccc(C(=O)NC3(c4nc5cc(CO)c(OC)cc5[nH]4)CCC3)cc21` [Example 2-413, N-[1-(5-hydroxymethyl-6-methoxy-1H-benzimidazol-2-yl)cyclobutyl]-12-cyclohexyl-3-methoxy-6,7-dihydro-5-oxa-7a-azadibenzo[a,e]azulene-9-carboxamide] was run?
Its IC50 is < 0.1 µM.

`COc1ccc2c(c1)OCCn1c-2c(C2CCCCC2)c2ccc(C(=O)N[C@@H](Cc3ccc(N)cc3)c3csc(C)n3)cc21` [Example 2-414, N—[(S)-2-(4-aminophenyl)-1-(2-methylthiazol-4-yl)ethyl]-12-cyclohexyl-3-methoxy-6,7-dihydro-5-oxa-7a-azadibenzo[a,e]azulene-9-carboxamide] was tested. Which IC50 did it give?
Its IC50 is < 0.1 µM.

Which IC50 does the source give for `COC(=O)Nc1ccc(C[C@H](NC(=O)c2ccc3c(C4CCCCC4)c4n(c3c2)CCOc2cc(OC)ccc2-4)c2csc(C)n2)cc1` [Example 2-415, methyl (4-[(S)-2-[(12-cyclohexyl-3-methoxy-6,7-dihydro-5-oxa-7a-azadibenzo[a,e]azulene-9-carbonyl)amino]-2-(2-methylthiazol-4-yl)ethyl]phenyl}carbamate] here?
The IC50 was < 0.1 µM.

Which IC50 does the source give for `COc1ccc2c(c1)OCCn1c-2c(C2CCCCC2)c2ccc(C(=O)N[C@@H](Cc3ccc(O)cc3)C(=O)NC(C)(C)C(=O)O)cc21` [Example 2-416, 2-[(S)-2-[(12-cyclohexyl-3-methoxy-6,7-dihydro-5-oxa-7a-azadibenzo[a,e]azulene-9-carbonyl)amino]-3-(4-hydroxyphenyl)propionylamino]-2-methylpropionic acid] here?
Its IC50 is < 0.1 µM.

With `COC(=O)COc1ccc2[nH]cc(C[C@H](NC(=O)c3ccc4c(C5CCCCC5)c5n(c4c3)CCOc3cc(OC)ccc3-5)c3csc(C)n3)c2c1` [Example 2-417, methyl {3-[(S)-2-[(12-cyclohexyl-3-methoxy-6,7-dihydro-5-oxa-7a-azadibenzo[a,e]azulene-9-carbonyl)amino]-2-(2-methylthiazol-4-yl)ethyl]-1H-indol-5-yloxy}acetate] as the molecule, how does the IC50 read?
The IC50 was < 0.1 µM.

How did the IC50 turn out when `COc1ccc2c(c1)OCCn1c-2c(C2CCCCC2)c2ccc(C(=O)NC(C)(C)c3nc4ccc(C(=O)N5CCN(C)CC5)cc4[nH]3)cc21` [Example 2-418, N-(1-methyl-1-[6-(4-methylpiperazine-1-carbonyl)-1H-benzimidazol-2-yl]ethyl}-12-cyclohexyl-3-methoxy-6,7-dihydro-5-oxa-7a-azadibenzo[a,e]azulene-9-carboxamide] was run?
Its IC50 is < 0.1 µM.

Which IC50 does the source give for `COc1ccc2c(c1)OCCn1c-2c(C2CCCCC2)c2ccc(C(=O)NC(C)(C)c3nc4ccc(C(=O)N5CCOCC5)cc4[nH]3)cc21` [Example 2-419, N-(1-methyl-1-[6-(morpholine-4-carbonyl)-1H-benzimidazol-2-yl]ethyl}-12-cyclohexyl-3-methoxy-6,7-dihydro-5-oxa-7a-azadibenzo[a,e]azulene-9-carboxamide] here?
Its IC50 is < 0.1 µM.

Which IC50 does the source give for `COc1ccc2c(c1)OCCn1c-2c(C2CCCCC2)c2ccc(C(=O)NC3(c4nc5ccc(OCc6ccccc6)cc5[nH]4)CCC3)cc21` [Example 2-420, N-[1-(6-benzyloxy-1H-benzimidazol-2-yl)cyclobutyl]-12-cyclohexyl-3-methoxy-6,7-dihydro-5-oxa-7a-azadibenzo[a,e]azulene-9-carboxamide] here?
The IC50 was < 0.1 µM.

With `COc1ccc2c(c1)OCCn1c-2c(C2CCCCC2)c2ccc(C(=O)N[C@@H](Cc3c[nH]c4ccc(OCCO)cc34)c3csc(C)n3)cc21` [Example 2-421, N—[(S)-2-[5-(2-hydroxyethoxy)-1H-indol-3-yl]-1-(2-methylthiazol-4-yl)ethyl]-12-cyclohexyl-3-methoxy-6,7-dihydro-5-oxa-7a-azadibenzo[a,e]azulene-9-carboxamide] as the molecule, how does the IC50 read?
The IC50 was < 0.1 µM.
